Reference: PubChem BioAssay AID2060607 (Molecular Pharmacology Branch, DTP, NCI, 2025)

Test system: 876862-298-R-J1-PDC complex spheroids, viability % test/control
Assay: Anticancer human tumor 876862-298-R-J1-PDC patient-derived endometrial carcinoma cell line growth inhibition [CLK]
Conditions: for IC50: curve of first compound; for viability, T/C: stronger effect = lower value
Outline: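 Patient-derived tumor cells grown as complex spheroids with HUVEC endothelial cells and mesenchymal stem cells, treated with drug combinations. Concentrations descend in half-log steps from near clinical Cmax, or from 10 microM if Cmax unknown.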

[1] = second compound 0.0316 µM, first compound 0.0316 µM
[2] = second compound 0.0316 µM, first compound 0.1 µM
[3] = second compound 0.0316 µM, first compound 0.316 µM
[4] = second compound 0.0316 µM, first compound 1 µM
[5] = second compound 0.0316 µM, first compound 3.16 µM
[6] = second compound 0.0316 µM, first compound 10 µM
[7] = second compound 0.1 µM, first compound 0.0316 µM
[8] = second compound 0.1 µM, first compound 0.1 µM
[9] = second compound 0.1 µM, first compound 0.316 µM
[10] = second compound 0.1 µM, first compound 1 µM
[11] = second compound 0.1 µM, first compound 3.16 µM
[12] = second compound 0.1 µM, first compound 10 µM
[13] = second compound 0.316 µM, first compound 0.0316 µM
[14] = second compound 0.316 µM, first compound 0.1 µM
[15] = second compound 0.316 µM, first compound 0.316 µM
[16] = second compound 0.316 µM, first compound 1 µM
[17] = second compound 0.316 µM, first compound 3.16 µM
[18] = second compound 0.316 µM, first compound 10 µM
[19] = second compound 1 µM, first compound 0.0316 µM
[20] = second compound 1 µM, first compound 0.1 µM
[21] = second compound 1 µM, first compound 0.316 µM
[22] = second compound 1 µM, first compound 1 µM
[23] = second compound 1 µM, first compound 3.16 µM
[24] = second compound 1 µM, first compound 10 µM
[25] = second compound 3.16 µM, first compound 0.0316 µM
[26] = second compound 3.16 µM, first compound 0.1 µM
[27] = second compound 3.16 µM, first compound 0.316 µM
[28] = second compound 3.16 µM, first compound 1 µM
[29] = second compound 3.16 µM, first compound 3.16 µM
[30] = second compound 3.16 µM, first compound 10 µM
[31] = second compound 10 µM, first compound 0.0316 µM
[32] = second compound 10 µM, first compound 0.1 µM
[33] = second compound 10 µM, first compound 0.316 µM
[34] = second compound 10 µM, first compound 1 µM
[35] = second compound 10 µM, first compound 3.16 µM
[36] = second compound 10 µM, first compound 10 µM
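Also: spheroids exposed to drugs for 7 days before readout.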
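For viability, T/C in this document: 100% = DMSO vehicle control wells.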

CC(=O)O[C@H]1C(=O)[C@@]2(C)[C@H]([C@H](OC(=O)c3ccccc3)[C@]3(O)C[C@H](OC(=O)[C@H](O)[C@@H](NC(=O)c4ccccc4)c4ccccc4)C(C)=C1C3(C)C)[C@]1(OC(C)=O)CO[C@@H]1C[C@@H]2O + CN1CCN(c2cc(C(=O)Nc3cc4cc(-c5cnn(C)c5)ccc4cn3)ccn2)CC1
IC50 (second compound 0.0316 µM): < 31.6 nM | IC50 (second compound 0.1 µM): < 31.6 nM | IC50 (second compound 0.316 µM): < 31.6 nM | IC50 (second compound 1 µM): < 31.6 nM | IC50 (second compound 3.16 µM): < 31.6 nM | IC50 (second compound 10 µM): < 31.6 nM | viability, T/C [1]: 32.4% | viability, T/C [2]: 28.7% | viability, T/C [3]: 30.5% | viability, T/C [4]: 28.1% | viability, T/C [5]: 30.7% | viability, T/C [6]: 34.8% | viability, T/C [7]: 28.6% | viability, T/C [8]: 24.5% | viability, T/C [9]: 22.7% | viability, T/C [10]: 21.3% | viability, T/C [11]: 23.5% | viability, T/C [12]: 24.1% | viability, T/C [13]: 1.74% | viability, T/C [14]: 1.82% | viability, T/C [15]: 2.01% | viability, T/C [16]: 2.21% | viability, T/C [17]: 2.68% | viability, T/C [18]: 4.53% | viability, T/C [19]: 0.82% | viability, T/C [20]: 0.89% | viability, T/C [21]: 0.6% | viability, T/C [22]: 0.59% | viability, T/C [23]: 0.84% | viability, T/C [24]: 0.56% | viability, T/C [25]: 0.93% | viability, T/C [26]: 0.84% | viability, T/C [27]: 0.96% | viability, T/C [28]: 0.79% | viability, T/C [29]: 0.78% | viability, T/C [30]: 0.55% | viability, T/C [31]: 0.6% | viability, T/C [32]: 0.59% | viability, T/C [33]: 0.57% | viability, T/C [34]: 0.58% | viability, T/C [35]: 0.66% | viability, T/C [36]: 0.58%

CCc1c2c(nc3ccc(O)cc13)-c1cc3c(c(=O)n1C2)COC(=O)[C@]3(O)CC + CN1CCN(c2cc(C(=O)Nc3cc4cc(-c5cnn(C)c5)ccc4cn3)ccn2)CC1
IC50 (second compound 0.0316 µM): < 3.16 nM | IC50 (second compound 0.1 µM): < 3.16 nM | IC50 (second compound 0.316 µM): < 3.16 nM | IC50 (second compound 1 µM): < 3.16 nM | IC50 (second compound 3.16 µM): < 3.16 nM | IC50 (second compound 10 µM): < 3.16 nM | viability, T/C (second compound 0.0316 µM, first compound 0.00316 µM): 25.1% | viability, T/C (second compound 0.0316 µM, first compound 0.01 µM): 8.53% | viability, T/C [1]: 7.87% | viability, T/C [2]: 4.18% | viability, T/C [3]: 3.57% | viability, T/C [4]: 2.49% | viability, T/C (second compound 0.1 µM, first compound 0.00316 µM): 14.1% | viability, T/C (second compound 0.1 µM, first compound 0.01 µM): 7.89% | viability, T/C [7]: 5.72% | viability, T/C [8]: 4.71% | viability, T/C [9]: 3.63% | viability, T/C [10]: 2.79% | viability, T/C (second compound 0.316 µM, first compound 0.00316 µM): 1.72% | viability, T/C (second compound 0.316 µM, first compound 0.01 µM): 1.95% | viability, T/C [13]: 1.32% | viability, T/C [14]: 0.72% | viability, T/C [15]: 0.73% | viability, T/C [16]: 0.47% | viability, T/C (second compound 1 µM, first compound 0.00316 µM): 0.79% | viability, T/C (second compound 1 µM, first compound 0.01 µM): 0.82% | viability, T/C [19]: 1.38% | viability, T/C [20]: 1.51% | viability, T/C [21]: 0.71% | viability, T/C [22]: 0.54% | viability, T/C (second compound 3.16 µM, first compound 0.00316 µM): 0.79% | viability, T/C (second compound 3.16 µM, first compound 0.01 µM): 0.71% | viability, T/C [25]: 0.85% | viability, T/C [26]: 0.75% | viability, T/C [27]: 0.6% | viability, T/C [28]: 0.43% | viability, T/C (second compound 10 µM, first compound 0.00316 µM): 0.44% | viability, T/C (second compound 10 µM, first compound 0.01 µM): 0.53% | viability, T/C [31]: 0.53% | viability, T/C [32]: 0.4% | viability, T/C [33]: 0.55% | viability, T/C [34]: 0.49%

COc1cccc2c1C(=O)c1c(O)c3c(c(O)c1C2=O)CC(O)(C(=O)CO)CC3OC1CC(N)C(O)C(C)O1 (stereo unspecified) + CN1CCN(c2cc(C(=O)Nc3cc4cc(-c5cnn(C)c5)ccc4cn3)ccn2)CC1
IC50 (second compound 0.0316 µM): < 31.6 nM | IC50 (second compound 0.1 µM): < 31.6 nM | IC50 (second compound 0.316 µM): < 31.6 nM | IC50 (second compound 1 µM): < 31.6 nM | IC50 (second compound 3.16 µM): < 31.6 nM | IC50 (second compound 10 µM): < 31.6 nM | viability, T/C [1]: 31.7% | viability, T/C [2]: 11.8% | viability, T/C [3]: 7.2% | viability, T/C [4]: 5.47% | viability, T/C [5]: 0.87% | viability, T/C [6]: 4.47% | viability, T/C [7]: 19.7% | viability, T/C [8]: 11.4% | viability, T/C [9]: 8.05% | viability, T/C [10]: 3.31% | viability, T/C [11]: 1.71% | viability, T/C [12]: 4.36% | viability, T/C [13]: 1.75% | viability, T/C [14]: 1.55% | viability, T/C [15]: 1.57% | viability, T/C [16]: 0.79% | viability, T/C [17]: 1.62% | viability, T/C [18]: 3.91% | viability, T/C [19]: 0.91% | viability, T/C [20]: 0.64% | viability, T/C [21]: 0.76% | viability, T/C [22]: 0.97% | viability, T/C [23]: 1.41% | viability, T/C [24]: 4.08% | viability, T/C [25]: 1.18% | viability, T/C [26]: 1.91% | viability, T/C [27]: 0.9% | viability, T/C [28]: 0.76% | viability, T/C [29]: 2.8% | viability, T/C [30]: 3.09% | viability, T/C [31]: 0.55% | viability, T/C [32]: 0.59% | viability, T/C [33]: 1.41% | viability, T/C [34]: 0.97% | viability, T/C [35]: 0.51% | viability, T/C [36]: 1.61%
